The star is where a group is joined. Fmoc = O=C(OCC1c2ccccc2-c2ccccc21)*

What all share (type): physicochemical
Data set [1] is described as follows: Absorbance kinetics of the hydrogel formation (turbidity at 400 nm). The method, then:
Absorbance kinetics of the hydrogel formation: Samples of 100 μL of Fmoc-FF, PegA, PepB formulations and the co-assembled hydrogels (bioink compositions) were placed into a 96-well plate. Absorbance at 400 nm was measured every 30 seconds using a TECAN Infinite M2000PRO plate reader for a total of 4 hours.
To further evaluate the impact of co-assembly on gelation kinetics, the absorbance spectra of the hybrid hydrogels compared to the Fmoc-FF hydrogel at 400 nm was monitored over time and the results are presented in FIGS. 8A-B.

Data set [2] is described as follows: TEM imaging of hydrogel fibrils. Particulars: hydrogels 5 g·L−1. The method, then: Transmission electron microscopy (TEM): Samples (10 μl) were placed on copper grids (400 mesh) covered with a carbon-stabilized Formvar film (EMS, BNFFA1000-Cu). After 2 minutes, excess gel was removed, and the grids were negatively stained with 10 μl of UranylLess staining solution for 1 minute. Finally, excess fluid was removed, and the samples were viewed in a JEM 1400plus electron microscope operating at 80 kV.

The nature of data set [3]: Time sweep rheology of peptide hydrogels and hybrid hydrogels. Particulars: 5 Hz; for G′/G″ / G′ (storage modulus) / G″ (loss modulus): hydrogels 5 g·L−1, time sweep 0.5% strain; for G′ (storage modulus): after 4 hours of gelation; for G′ (storage modulus) / G″ (loss modulus): room temperature. The method, then: Rheological measurements: Rheological analysis was performed using an AR-G2 controlled rheometer (TA Instruments, New Castle, DA, USA). Oscillatory strain (0.01-100%) and frequency sweep (0.01-100 Hz) were conducted on 100 μL samples of pre gelated disks, 8 mm in diameter. The measurement was conducted with an 8 mm geometry (resulting in a gap size of 1 mm) at room temperature, in order to define the viscoelastic region in which the oscillatory test was performed.
Time-sweep oscillatory analyses used a constant a frequency of 5 Hz and a strain of 0.5%. Freshly prepared samples (220 μL) were placed under a 20 mm parallel plate geometry (resulting in a gap of 0.6 mm) at room temperature to determine the G′ (storage modulus) and G″, (loss modulus) for each sample.
The in situ kinetics of the hydrogels formation and their mechanical properties were characterized by time sweep measurements over 4 hours at a fixed strain of 0.5% and frequency of 5 Hz, and the results are presented in FIGS. 3A-B.

Data set [4] in a line: Hydrogel formation, inverted tubes after overnight gelation. Particulars: single peptide, 5 g·L−1 in water from DMSO stock. The method, then: Preparation of hydrogels: Stock solutions of each of Fmoc-FF, PepA and PepB were prepared by dissolving the respective peptides in dimethyl sulfoxide (DMSO) at a concentration of 100 gram/liter (g·L^−1). The hydrogels were prepared by diluting the stock solution in double distilled water to a final concentration of 5 grams/Liter (5 g·L^−1), to thereby obtain a hydrogel formulation. The mixture was vortexed for 2 seconds and then incubated at room temperature until gelation occurred, thereby providing a hydrogel bioink composition.
Hydrogels made of a single peptide and hybrid hydrogels made of two peptides were prepared using the solvent switch method by dissolving the monomers in DMSO and then diluting the stock solutions into water to a final concentration of 5 g-L.

Turning to “Fmoc-Phe-Phe-OH [Fmoc-FF, reference compound]”, the “time to form a clear hydrogel (absorbance drop)” value in data set [1] (absorbance at 400 nm monitored over time) is “within a few minutes”. This substance also gave an OD value reached in data set [1] (absorbance at 400 nm, minimum after clearing) of 0.1 OD. In addition, the fibril diameter in data set [2] was determined as 16 nm. In data set [3], the “G′/G″” value worked out at 37, the “G′ (storage modulus)” value worked out at 9552 Pa and the “G″ (loss modulus)” value is reported as 251 Pa. For the same substance, in data set [3] (time sweep over 4 hours, 0.5% strain, 5 g·L−1), the “time to gelation / plateau of hydrogel formation” value was at most 4 min. Moreover, in data set [4], the hydrogel formation entry is “rigid and stable”.
Substance Fmoc-Phe-Phe-EG2—COOH [PepA] returned a fibril diameter in data set [2] of 9 nm. Besides, in data set [3], the “G′/G″” value stood at 3, the “G′ (storage modulus)” value stood at 157 Pa and the “G″ (loss modulus)” value was 42 Pa. For the same substance, the hydrogel formation entry in data set [4] is “formed a weak hydrogel”.
For the substance Fmoc-Phe-Phe-EG6-COOH [PepB], in data set [3], the “G′/G″” value amounted to 0, the “G′ (storage modulus)” value amounted to 1 Pa and the “G″ (loss modulus)” value is 1 Pa. Further, the hydrogel formation entry in data set [4] was “did not form a hydrogel at all”.

The values are drawn from patent publication US20240425710A1, “PEPTIDE-BASED BIOINK COMPOSITIONS” (Ramot at Tel-Aviv University Ltd., priority 2022, published 2024).
